According to patent US20230139826A1 (NONO INC., priority 2020, published 2023):
Residues, ends and D or L forms follow the SMILES beside them.

Tests used:
[1] = In-vitro peptide degradation assay in rat plasma with rt-PA or TNK
Description: To determine nerinetide stability in the presence of rt-PA in plasma, we use an in-vitro peptide content analysis by HPLC. In brief, Nerinetide or D-Tat-L-2B9c were spiked into rat or human plasma at a concentration of 65 ug/ml. rt-PA was added after the baseline time-point was collected, at the specified concentrations. rt-PA administration followed the clinical dosing approach [10% bolus dose followed by 60-mins infusion (90% of the dose)], using a Harvard apparatus pump. Sample collection following IV bolus was performed at 5 min, 15 min, 30 min and 45 min post-dose. At each time point, approximately 100 uL of plasma was collected from each vial using a fresh syringe. Plasma was then collected and stored at -80° C. until analyzed.
Nerinetide or D-Tat-L2B9c was extracted by precipitation with 1M perchloric acid. All analyses were performed on an Agilent 1260 Infinity Quaternary LC System (Agilent Technologies, Santa Clara, Calif., USA) and on a 25 cm [YMAA12S052546WT] C-18 RP-HPLC column (Agilent Technologies, Santa Clara, Calif., USA). The column was equilibrated with 10% acetonitrile with 0.1% TFA at 40° C. The eluent flow was 1.5 ml/min (gradient from 10% to 35% acetonitrile in 0.1% TFA) The UV trace was recorded at 220 nm. Concentrations of nerinetide or D-Tat-L-2B9c were derived from calibration standards obtained by spiking the agent into plasma.

acute ischemic stroke = experiment: ESCAPE-NA1 trial: treatment emergent serious adverse events; format: in vivo, human
Description: The primary outcome was good outcome as defined by a score of 0-2 on the modified Rankin scale (mRS) (range, 0 [no symptoms] to 6 [death]) for the assessment of neurologic functional disability^2 assessed in person or, if an in-person visit was not possible, by telephone, at 90 days after randomization by personnel certified in the scoring of the mRS. Secondary efficacy outcomes were neurological outcome as defined by the NIHSS of 0-2, functional independence in activities of daily living as defined by a Barthel Index score of ≥95, excellent functional outcome as defined by a score of 0-1 on the mRS and mortality rates. Tertiary outcomes included assessments of stroke volumes on 24-hour imaging (MR or CT brain). Prespecified safety outcomes were all serious adverse events and mortality. Imaging interpretation was conducted at a central core laboratory and clinical data were verified by independent monitors. Infarct volumes were measured by summation of manual planimetric demarcation of infarct on axial imaging (636/1099 (57.9%) on CT and 463/1099 (42.1%) on MRI).
The safety population included all patients who received any amount of study drug (n=1101). There were no differences in important safety outcomes. (Table 3).

PDZ2 domain of PSD-95 = PDZ2 domain of PSD-95 (Homo sapiens, UniProt P78352); experiment: Direct ELISA of biotinylated peptides to PSD-95 PDZ2; format: binding; conditions: biotinylated peptides, triplicate; read-out: EC50, direct ELISA binding to PSD-95 PDZ2 domain
Description: ELISA plates were coated with 1 ug/ml PSD95PDZ2 in 50 mM bicarbonate buffer overnight at 4 C. The plate was blocked in 2%BSA in PBST (0.05%) for 2 h at room temperature. It was then incubated with biotinylated ligand (nerinetide, D-tat-L2B9c or D-Tat-L-AA) at the indicated concentrations (FIG. 4A) and incubated overnight at 4 C. After washing with PBS-T, the plate was incubated for 30 min with (1:3000) SA-HRP, washed again, and incubated with TMB solution for 10 min. The reaction was stopped with 100 ul H2504. Absorbance was determined at 450 nm with the synergy H1 reader.

[2] = Plasma half-life in humans; format: in vivo; conditions: intravenous, 2.6 mg/kg, human, human equivalent concentrations
plasmin = plasmin (Homo sapiens, UniProt P00747)
Description: (A) LC/MS spectrum of nerinetide after incubation with plasmin in PBS. 10 uL aliquots of nerinetide (18 mg/mL) and plasmin (1 mg/mL) were incubated in 500 uL tubes of phosphate-buffered saline at 37 C for 5 min and the reaction stopped by cooling to −80 C until tested. […] (B, C) In-vitro effect of rt-PA on nerinetide content in rat (B) and human (C) plasma. Nerinetide was spiked into the plasma samples at t=0 at a concentration of 65 ug/ml, whereas alteplase (rt-PA) was administered as a 60 min infusion at the indicated concentration (D, E) In-vivo effect of the simultaneous administration of nerinetide and rt-PA on Cmax (D) and AUC (E) in the rat. The nerinetide bolus and alteplase (60 min infusion) were started simultaneously through two separate intravenous lines. Symbols represent mean±SD. […] […] (SEQ ID NO:3) (Full-length NA-1, undigested), […] […] (SEQ ID NO:8), […] […] (SEQ ID NO:10).
Direct ELISA of the indicated biotinylated peptides to the PDZ2 domain of PSD-95. […] Symbols indicate the mean±SD of triplicate experiments. […] (B). […] E,F. Time course of nerinetide or D-TAT-L-2B9c content in rat plasma (E) and human plasma (F) during a challenge with tenecteplase (TNK; 37.5 ug/ml or 6.25 ug/ml, respectively). […] (repeated measures two-way ANOVA with a post hoc Sidak's multiple comparisons test, *P<0.01). Symbols are means±SD. […]

[3] = Nerinetide plasma levels in ESCAPE-NA1 subjects with and without alteplase; format: in vivo, human
Description: All patients had standard assessments of demographic characteristics, medical history, laboratory values and stroke severity (NIHSS score). In some patients, up to 6 consecutive blood samples were drawn following dosing for pharmacokinetic analysis of nerinetide levels.
Nerinetide plasma levels were obtained from 22 subjects in ESCPAE-NA1 and previously acquired data from 8 healthy volunteer subjects receiving a single dose of 2.6 mg/kg nerinetide intravenously. Time 0 is a preinfusion time-point. […] The bars represent standard error of the mean. […] In the presence of alteplase, nerinetide's maximum level was reduced by more than 50% with decline to background level by 60 minutes. […] (p=0.0119, mixed effects linear regression).

[4] = tested on: transient middle cerebral artery occlusion (tMCAO); experiment: Rat transient middle cerebral artery occlusion model
Description: Nerinetide and lodoxamide was administered to rats intravenously as a bolus injection, 60 minutes after tMCAo. […] Bars in A and represent mean±SD, with all individual data points plotted. Asterisks in A indicate P<0.01 when compared to the vehicle group (one-way ANOVA post hoc Tukey's correction for multiple comparisons test) N=12-14 animals/group. […] Significant differences are indicated with an asterisk when compared to the vehicle group (Kruskal-Wallis analysis of variance on ranks with a post-hoc Dunn's correction for multiple comparisons test, *P<0.01). Vehicle: PBS alone. Scrambled: ADA peptide incapable of binding PSD-95.
All animals subjected to surgery had their physiological parameters measured prior to MCA occlusion. PE-50 polyethylene tubing was inserted into the right femoral artery for invasive monitoring of mean arterial blood pressure and for obtaining blood samples to measure blood gases (pH, PaO2, and PaCO2), electrolytes (Na^+, K^+, iCa) and plasma glucose at baseline [Blood gas cartridge CG8+, VetScan i-STAT 1 Analyzer].
Infarct volumes and hemispheric swelling were evaluated at 24 hours post-stroke from standard brain slices stained with 2% 2,3,5-triphenyltetrazolium chloride (Sigma Aldrich, St. Louis, Md., USA)(7). Neurologic scoring was conducted at 24 hours after stroke onset using forelimb-placing tests comprising of frontal visual placing, sideways visual placing, frontal tactile placing, sideways tactile placing, and vertical tactile placing (scores range from 0-2 in each component for a maximum of 12 indicating maximum impairment.

Sequence of PDZ2 domain of PSD-95 (P78352 160-246 limits assumed): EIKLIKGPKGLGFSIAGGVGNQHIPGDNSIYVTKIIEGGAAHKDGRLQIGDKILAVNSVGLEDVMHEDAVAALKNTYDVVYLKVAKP
Sequence of plasmin (P00747 581-810 limits assumed, species assumed): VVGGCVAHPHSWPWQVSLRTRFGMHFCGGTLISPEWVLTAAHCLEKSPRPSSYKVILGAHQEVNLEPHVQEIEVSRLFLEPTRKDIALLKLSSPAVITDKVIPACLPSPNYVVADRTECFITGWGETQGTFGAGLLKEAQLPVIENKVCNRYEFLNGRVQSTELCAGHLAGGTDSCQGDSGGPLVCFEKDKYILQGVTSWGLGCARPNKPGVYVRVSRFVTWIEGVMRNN
Sequence of plasmin (P00747 97-580 partner limits assumed, species assumed): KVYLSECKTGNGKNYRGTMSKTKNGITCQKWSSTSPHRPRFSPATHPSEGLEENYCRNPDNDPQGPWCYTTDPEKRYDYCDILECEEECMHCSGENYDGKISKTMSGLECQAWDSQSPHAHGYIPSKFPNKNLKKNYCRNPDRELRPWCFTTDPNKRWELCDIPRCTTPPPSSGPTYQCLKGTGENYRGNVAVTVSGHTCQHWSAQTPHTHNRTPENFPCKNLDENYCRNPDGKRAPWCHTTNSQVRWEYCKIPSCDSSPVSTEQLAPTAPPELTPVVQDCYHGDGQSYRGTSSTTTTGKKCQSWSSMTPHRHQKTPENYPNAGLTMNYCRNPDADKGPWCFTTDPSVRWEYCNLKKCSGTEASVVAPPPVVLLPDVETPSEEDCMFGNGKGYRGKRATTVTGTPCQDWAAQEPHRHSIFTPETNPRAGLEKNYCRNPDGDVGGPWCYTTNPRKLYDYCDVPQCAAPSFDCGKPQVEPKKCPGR

## CC[C@H](C)[C@H](NC(=O)[C@H](CO)NC(=O)[C@H](CO)NC(=O)[C@H](CC(C)C)NC(=O)[C@H](CCCCN)NC(=O)[C@H](CCCN=C(N)N)NC(=O)[C@H](CCCN=C(N)N)NC(=O)[C@H](CCCN=C(N)N)NC(=O)[C@H](CCC(N)=O)NC(=O)[C@H](CCCN=C(N)N)NC(=O)[C@H](CCCN=C(N)N)NC(=O)[C@H](CCCCN)NC(=O)[C@H](CCCCN)NC(=O)[C@H](CCCN=C(N)N)NC(=O)CNC(=O)[C@@H](N)Cc1ccc(O)cc1)C(=O)N[C@@H](CCC(=O)O)C(=O)N[C@@H](CO)C(=O)N[C@@H](CC(=O)O)C(=O)N[C@H](C(=O)O)C(C)C [Nerinetide] (H-YGRKKRRQRRRKLSSIESDV-OH)
[1]; 65 ug/ml nerinetide, 37° C., alteplase over 60 minutes
  nerinetide content in rat plasma on addition of alteplase: reduced the nerinetide content in rat plasma in a concentration-dependent manner
[1]; TNK 37.5 ug/ml
  elimination in rat plasma with tenecteplase (TNK): rapid elimination
[1]; absence of alteplase
  stability alone in rat plasma: stable
[1]; rt-PA 135 ug/ml
  degradation in rat plasma with alteplase: rapid degradation
Acute ischemic stroke; nerinetide n = 547
  Angioedema, patients number (proportion): 1 (0.2%)
  Congestive cardiac failure, patients number (proportion): 9 (1.6%)
  Deep vein thrombosis/pulmonary embolism, patients number (proportion): 3 (0.5%)
  Hives/Urticaria/Pruritis, number of patients: 0
  Hypotension, patients number (proportion): 7 (1.3%)
  Ischaemic stroke (new onset/recurrent), patients number (proportion): 18 (3.3%)
  Pneumonia, patients number (proportion): 25 (4.6%)
  Stroke-in-evolution (progression), patients number (proportion): 36 (6.6%)
  Symptomatic ICH, patients number (proportion): 19 (3.5%)
  Urinary tract infection, patients number (proportion): 8 (1.5%)
Acute ischemic stroke; nerinetide vs placebo
  Angioedema, RR (95% CI) unadjusted: 1.01 (0.06-16.1)
  Any serious adverse Event, RR (95% CI) unadjusted: 0.92 (0.79-1.09)
  Congestive cardiac failure, RR (95% CI) unadjusted: 2.28 (0.71-7.36)
  Deep vein thrombosis/pulmonary embolism, RR (95% CI) unadjusted: 0.38 (0.1-1.42)
  Hypotension, RR (95% CI) unadjusted: 7.09 (0.88-57.4)
  Ischaemic stroke (new onset/recurrent), RR (95% CI) unadjusted: 0.91 (0.49-1.70)
  Pneumonia, RR (95% CI) unadjusted: 1.49 (0.81-2.73)
  Stroke-in-evolution (progression), RR (95% CI) unadjusted: 0.85 (0.55-1.30)
  Symptomatic ICH, RR (95% CI) unadjusted: 0.80 (0.44-1.45)
  Urinary tract infection, RR (95% CI) unadjusted: 1.15 (0.42-3.17)
Acute ischemic stroke; patients treated with nerinetide
  rates of adverse events compared with placebo: no significant differences
Acute ischemic stroke; safety population, nerinetide n = 547
  Any serious adverse Event, patients number (proportion): 181 (33.1%)
PDZ2 domain of PSD-95
  EC50: 93 nM
[2]
  half-life: 5 to 10 min
plasmin
  stability alone in phosphate buffered saline: stable
[3]; absence of alteplase
  time of decline of plasma level to background: about 120 minutes
[3]; absence of alteplase, 2.6 mg/kg iv
  time at which plasma peak levels were reached: ten
[3]; presence of alteplase
  AUC change: similarly reduced
  reduction of maximum plasma level: more than 50%
  time of decline of plasma level to background: 60 min
[4]; doses as low as 0.25 mg/kg
  neurological function 24 hours after tMCAo: improvement
[4]; doses as low as 0.25 mg/kg, vs vehicle
  infarct volume 24 hours after tMCAo: significant reduction
[4]; doses of as little as 0.025 mg/kg
  efficacy in tMCAo: effective
[4]; doses up to at least 25 mg/kg
  efficacy in tMCAo: effective
[4]; rat tMCAO, comparison of the two peptides
  reducing infarction volume, hemispheric swelling and improving neurological scores: equally effective
[4]; rat tMCAo dose-response
  dose with the highest efficacy: about 15 mg/kg
[4]; rat tMCAo, iv bolus 60 minutes after tMCAo, with lodoxamide
  effective dosage range (reducing infarction size and neurologic deficit): 0.025-25 mg/kg
